“Also recorded” adds a separate entry of the source.
Key:
[1] = system: neointima formation; settings: animal models; cited from earlier work
[2] = system: MOLM13 cells; test: [14C]-thymidine incorporation cell proliferation assay, MOLM13; assay type: cell-based, human; settings: Homo sapiens, MOLM-13, 72 hour incubation
Protocol: The cell proliferation inhibition potency of the CDK4/6-FLT3 inhibitors was determined by using a [^14C]-thymidine incorporation assay. Exponentially growing cells (MOLM-13, Colo-205, etc.) were seeded in a 96-well Cytostar T plate (GE Healthcare Biosciences) at a density of 5×10^3 cells/well and incubated overnight. Serially diluted compounds and 0.1 μCi of [^14C]-thymidine (GE Healthcare Biosciences) were added to each well on the following day. After 72 hour incubation, isotope incorporation was determined with a β plate counter (Wallac). MOLM13 is a human AML tumor cell line expressing FLT3, FLT3^ITD and wild type Rb.
(§1) IC50 values of the compounds in the above assays were determined by non-linear regression analysis using Prism (GraphPad Software).

[3] = molecular target: CDK4/Cyclin D1 (Homo sapiens (Human), UniProt P11802); test: CDK4 filtration kinase assay; assay type: biochemical; settings: CDK4/Cyclin D1, Rb fragment substrate, [33P]-ATP filtration assay
Chain of CDK4/Cyclin D1 (P11802 whole entry, the tested form may be a part): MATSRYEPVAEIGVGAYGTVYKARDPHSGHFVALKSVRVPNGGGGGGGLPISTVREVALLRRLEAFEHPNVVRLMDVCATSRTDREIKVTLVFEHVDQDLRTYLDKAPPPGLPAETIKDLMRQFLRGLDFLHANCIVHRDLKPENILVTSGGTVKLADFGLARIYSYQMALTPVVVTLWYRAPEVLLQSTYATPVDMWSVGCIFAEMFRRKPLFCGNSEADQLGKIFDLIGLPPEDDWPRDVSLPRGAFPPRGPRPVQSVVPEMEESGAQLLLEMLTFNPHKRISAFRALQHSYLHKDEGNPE
Chain of CDK4/Cyclin D1 (P24385 whole entry partner, the tested form may be a part): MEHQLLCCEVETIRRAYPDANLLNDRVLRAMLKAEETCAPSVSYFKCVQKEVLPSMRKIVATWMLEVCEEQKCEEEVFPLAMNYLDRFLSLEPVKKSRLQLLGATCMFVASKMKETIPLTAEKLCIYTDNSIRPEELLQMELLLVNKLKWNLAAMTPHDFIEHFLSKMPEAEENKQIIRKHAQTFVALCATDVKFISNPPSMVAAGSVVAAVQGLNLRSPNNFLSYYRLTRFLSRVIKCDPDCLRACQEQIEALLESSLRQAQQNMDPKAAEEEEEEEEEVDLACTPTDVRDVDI
Protocol: The CDK4 and CDK1 inhibitory activity of the CDK4/6-FLT3 inhibitors was determined with a filtration kinase assay. The compounds, kinase and substrate diluted in the kinase buffer (20 mM Tris, pH7.4, 50 mM NaCl, 1 mM DTT, 0.1% BSA) were sequentially added to a 96-well Multiscreen HTS filtration plate (Millipore). The final 100 μL reaction mixture in each well contained 0.3 μg of CDK4/Cyclin D1 or CDK1/Cyclin B (Cell Signaling Technology), 1 μg of Rb fragment (aa773-928, Millipore) for the CDK4 assay or 5 μg of histone H1 for the CDK1 assay and 1 μCi of [^33P]-ATP. The mixture was incubated at room temperature for 1 hour. The proteins in the reaction were then precipitated and washed with cold TCA solution using an aspiration/filtration vacuum system. The plates were dried at room temperature, and the retained radioactivity was measured by scintillation counting.
as §1

[4] = system: MOLM13 subcutaneous xenograft tumors; test: Tumor growth inhibition in AML MOLM13 xenograft tumors; assay type: in vivo, CrTac:NCR-Foxn1nu nude mice
Protocol: The AML cell line, MOLM13, (obtained from American Type Culture Collection, Manassas, Va., USA) was cultured in RPMI-1640 cell growth medium containing 10% fetal bovine serum (commercially obtained from Invitrogen, Carlsbad, Calif. USA). This cell line expresses CDK4/6, one copy of wild type FLT3 kinase and one copy of FLT3-ITD, which results in constitutive activation of FLT3 activity. Therefore, the activity of Example 5 against both FLT3 and CDK4/6 can be tested in this tumor cell. Tumor cells (7.5 million) were injected subcutaneously onto the right flank of CrTac:NCR-Foxn1^nu nude mice (commercially available from Taconic Farms, Inc, Hudson, N.Y. USA). Tumors were allowed to grow for 6 days. […] Tumors were measured every other day using two-dimensional calipers and tumor volumes were estimated using the equation Width^2×Length×0.5. […] Statistical significance was evaluated using RMANOVA on log transformed tumor volume with baseline as covariate.

[5] = system: Colo205 human colon carcinoma xenograft tumors; test: Tumor growth inhibition in Colo205 xenograft tumors; assay type: in vivo, CrTac:NCR-Foxn1nu nude mice
Protocol: The activity of Example 5 was evaluated in the human colon carcinoma, Colo205, xenograft tumor model. This cell line expresses CDK4/6 but not FLT3. Therefore, this system will measure the activity of Example 5 against CDK4/6. Colo205 cells (obtained from American Type Culture Collection, Manassas, Va., USA) were cultured in DMEM cell growth medium containing 10% fetal bovine serum (commercially obtained from Invitrogen, Carlsbad, Calif. USA). Two million cells were innoculated on the right flank of CrTac:NCR-Foxn1^nu nude mice (commercially available from Taconic Farms, Inc, Hudson, N.Y. USA) and allowed to grow for 13 days. Mice were then distributed into groups of 10 mice based on ranking of initial tumor volume to achieve groups in which the average tumor size was 170 mm^3 Example 5 was formulated in 2% HPMC (Hypermellose; HY122-13; commercially available from Spectrum Chemical Manufacturing Gardena, Calif. USA)/1% Tween-80 (Crillet 4 HP; commercially available from Croda, Inc Edison, N.J. USA) and dosed daily or twice daily 6 hours apart for a total of 10 days with 12.5 mg/kg, 25 mg/kg, 37.5 mg/kg, or 50 mg/kg. Tumors were measured every other day using two-dimensional calipers and tumor volumes were estimated using the equation Width^2×Length×0.5. […] Statistical significance was evaluated using RMANOVA on log transformed tumor volume with baseline as covariate.

[6] = molecular target: FLT3 enzyme (GST-FLT3 fusion) (Homo sapiens (Human), UniProt P36888); test: FLT3 HTRF kinase assay; assay type: biochemical; settings: 116 μM ATP
Chain of FLT3 enzyme (GST-FLT3 fusion) (P36888 27-993): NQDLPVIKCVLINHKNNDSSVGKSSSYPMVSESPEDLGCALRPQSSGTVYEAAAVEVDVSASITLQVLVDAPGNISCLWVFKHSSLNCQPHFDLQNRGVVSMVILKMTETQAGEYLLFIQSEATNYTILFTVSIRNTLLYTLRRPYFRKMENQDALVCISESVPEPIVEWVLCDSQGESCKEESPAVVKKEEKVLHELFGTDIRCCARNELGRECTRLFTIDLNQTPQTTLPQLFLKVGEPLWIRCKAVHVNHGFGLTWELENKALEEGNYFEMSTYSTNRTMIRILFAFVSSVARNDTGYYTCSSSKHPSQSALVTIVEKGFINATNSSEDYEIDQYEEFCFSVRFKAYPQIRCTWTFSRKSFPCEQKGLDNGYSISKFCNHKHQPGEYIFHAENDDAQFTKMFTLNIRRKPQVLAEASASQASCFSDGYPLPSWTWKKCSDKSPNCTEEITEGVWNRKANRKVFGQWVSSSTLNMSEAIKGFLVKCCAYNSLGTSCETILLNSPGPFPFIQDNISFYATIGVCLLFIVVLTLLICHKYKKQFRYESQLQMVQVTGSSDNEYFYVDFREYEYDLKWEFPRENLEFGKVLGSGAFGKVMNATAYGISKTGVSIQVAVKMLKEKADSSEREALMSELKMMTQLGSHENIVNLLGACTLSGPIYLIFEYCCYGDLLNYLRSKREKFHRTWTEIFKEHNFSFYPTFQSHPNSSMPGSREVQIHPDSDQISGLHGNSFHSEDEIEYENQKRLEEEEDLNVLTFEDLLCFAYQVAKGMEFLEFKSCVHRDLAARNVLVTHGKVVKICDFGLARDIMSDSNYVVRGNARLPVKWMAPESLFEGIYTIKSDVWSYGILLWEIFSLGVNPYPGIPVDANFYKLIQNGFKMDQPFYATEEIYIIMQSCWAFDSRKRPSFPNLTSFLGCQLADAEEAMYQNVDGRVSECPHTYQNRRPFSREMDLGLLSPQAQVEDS
Protocol: The FLT3 inhibitory activity of the CDK4/6-FLT3 inhibitors was determined with a HTRF kinase assay. The FLT3 enzyme (GST-FLT3 fusion) was purchased from Carna Biosciences. An ULight-labeled synthetic peptide derived from human Janus kinase 1 (aa1015-1027, ULight-JAK1, PerkinElmer) was utilized as the phosphoacceptor substrate. The assay was conducted in a 384-well white OptiPlate (PerkinElmer). The 20 μL reaction mixture contained 50 nM ULight-JAK1, 116 μM ATP, 0.0385 ng/μL FLT3 and dilutions of test compounds in the kinase buffer (50 mM Hepes, pH 7.6, 1 mM EGTA, 10 mM MgCl2, 2 mM DTT, and 0.005% Tween 20). The reaction was allowed to proceed for 1 hour at room temperature and was stopped by adding 20 μL of 10 mM EDTA, 2 nM LANCE® Eu-W1024 anti-phospho-tyrosine antibody in LANCE® detection buffer (PerkinElmer). The plates were incubated at room temperature for 2 hours after addition of detection reagents and then read on an Envision multimode reader (PerkinElmer).
as §1

IC50 [2] [nM]	IC50 [3] [nM]	IC50 [6] [nM]	SMILES	inhibition of neointima formation [1]	inhibition of tumor growth (tumor volume) ([4]; 6.25-150 mg/kg, twice daily (BID), 10 days)	tumor volume versus vehicle treated group (RMANOVA) ([4]; all doses)	inhibition of tumor growth (tumor volume) ([5]; 12.5-50 mg/kg, twice daily (BID), 10 days)	tumor volume versus vehicle treated group (RMANOVA) ([5]; all doses)
–	–	–	COc1ccc(CNc2nc(N(CCO)CCO)nc3c2ncn3C(C)C)cc1 [CVT-313]	significant inhibition of neointima formation	–	–	–	–
19	2.4	1.5	C[C@H]1CC[C@H](n2c3cnccc3c3cnc(Nc4ccc5c(n4)CCN(C(=O)CO)C5)nc32)CC1 [Example 5, 2-hydroxy-1-(2-((9-((1r,4r)-4-methylcyclohexyl)-9H-pyrido[4′,3′:4,5]pyrrolo[2,3-d]pyrimidin-2-yl)amino)-7,8-dihydro-1,6-naphthyridin-6(5H)-yl)ethanone]	–	dose dependent anti-tumor activity; also recorded: Dose-dependent inhibition of tumor growth	statistically different from the vehicle treated group	dose dependent anti-tumor activity; also recorded: Dose-dependent inhibition of tumor growth	statistically different from the vehicle treated group

From US8623885B2, “Fused tricyclic dual inhibitors of CDK 4/6 and FLT3” (Amgen Inc., priority 2011, dated 2014)
